Laboratory results from patent US20250281496A1, “METHODS OF TREATING NEUROPATHY USING FORETINIB AND COMPOSITIONS THEREOF” (INDIANA UNIVERSITY RESEARCH AND TECHNOLOGY CORPORATION, priority 2022, published 2025).

System: experimental diabetic neuropathy
Test: Lower extremity nerve histomorphology (sciatic and sural nerve) in STZ-diabetic mice
Format: in vivo
Conditions: 30 mg/kg oral daily, five weeks post-diabetes induction
Method: In total, 20 mice were injected with 100 mg/kg bodyweight of streptozotocin (STZ, […], Sigma Aldrich) in 0.1M citrate buffer (pH 4.5) on two consecutive days respectively, to induce diabetes type 1^27. Prior to the first injection and in weekly intervals thereafter, all animals were weighted and underwent tail prick blood sugar measurements using a clinical grade monitoring system (Contour One, Ascensia Diabetes Care, Mississauga, Ontario) as previously described. Mice were considered diabetic when blood glucose was at least 15 mmol/L (270 mg/dl). Prior to diabetes induction the mice were block randomized into experimental groups (n=10 Foretinib treatment, n=5 vehicle treatment, n=5 non-treated diabetic control). An additional 5 non-diabetic animals served as a healthy control. Foretinib treatments started 1-week post-diabetes induction. Foretinib was prepared fresh daily by dissolving 6 mg Foretinib in 1 ml of 1% (Hydroxypropyl)-methyl cellulose (09963, Sigma Aldrich) and 0.2% sodium dodecyl sulfate ([…], Sigma Aldrich) in sterile H2O. […] A custom-trained deep learning model based on the open-source software AxonDeepSeg^29 determined axon diameter and myelin sheath thickness and g-ratio for entire nerve cross sections.

COc1cc2c(Oc3ccc(NC(=O)C4(C(=O)Nc5ccc(F)cc5)CC4)cc3F)ccnc2cc1OCCCN1CCOCC1 [Foretinib, N1-[3-Fluoro-4-({6-methoxy-7-[3-(morpholin-4-yl)propoxy]quinolin-4-yl}oxy)phenyl]-N′1-(4-fluorophenyl)cyclopropane-1,1-dicarboxamide]
peripheral nerve histomorphology (axon diameter, myelin sheath thickness, g-ratio): did not affect peripheral nerve histomorphology
